Experimental data: ChEMBL document CHEMBL1201862, “PubChem BioAssay data set” (2004)
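Cultured in 96-well plates, cells were exposed to test compound for 48 hours across five concentrations. The concentration for 50% growth inhibition is given as GI50.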 Activity calls are given as the source filed them. No stated cut-off is given here; in the data, active = GI50 up to about 1.1 µM and inactive = higher.

Columns and labels:
Experiment in all cases: inhibition of tumour cell growth, NCI panel, 48 h
786-0 = tested on: 786-0
CAKI-1 = tested on: CAKI-1
COLO 205 = tested on: COLO 205
HOP-62 = tested on: HOP-62
K562 = tested on: K562
M14 = tested on: M14
MDA-MB-435 = tested on: MDA-MB-435
MDA-N = tested on: MDA-N
MOLT-4 = tested on: MOLT-4
Malme-3M = tested on: Malme-3M
NCI-H23 = tested on: NCI-H23
NCI-H522 = tested on: NCI-H522
NCI/ADR-RES = tested on: NCI/ADR-RES
PC-3 = tested on: PC-3
SK-MEL-28 = tested on: SK-MEL-28
SK-MEL-2 = tested on: SK-MEL-2
SN12C = tested on: SN12C
SNB-19 = tested on: SNB-19
U-251 = tested on: U-251
HL-60 = tested on: HL-60

Measured: GI50

Cc1cc(C)nc(NC(=O)COc2ccc(Cl)cc2)c1
inactive: 786-0 > 100 µM | CAKI-1 > 100 µM | COLO 205 > 100 µM | HOP-62 > 100 µM | K562 > 100 µM | M14 > 100 µM | MDA-MB-435 > 100 µM | MDA-N > 100 µM | MOLT-4 56.6 µM | Malme-3M > 100 µM | NCI-H23 > 100 µM | NCI-H522 84.5 µM | NCI/ADR-RES 66.4 µM | PC-3 > 100 µM | SK-MEL-28 > 100 µM | SK-MEL-2 > 100 µM | SN12C > 100 µM | SNB-19 > 100 µM | U-251 > 100 µM

COc1ccc(C/C=C(\C)CCO)cc1
inactive: 786-0 > 100 µM | CAKI-1 38.5 µM | COLO 205 > 100 µM | HOP-62 > 100 µM | K562 > 100 µM | M14 > 100 µM | MDA-MB-435 > 100 µM | MDA-N > 100 µM | MOLT-4 > 100 µM | NCI-H23 > 100 µM | NCI-H522 > 100 µM | NCI/ADR-RES > 100 µM | PC-3 > 100 µM | SK-MEL-2 > 100 µM | SN12C > 100 µM | SNB-19 > 100 µM | U-251 > 100 µM

CCOP(=O)(OCC)c1cc2cc(O)ccc2oc1=O
inactive: 786-0 > 100 µM | CAKI-1 > 100 µM | COLO 205 > 100 µM | HL-60 > 100 µM | HOP-62 > 100 µM | K562 > 100 µM | M14 > 100 µM | MDA-MB-435 > 100 µM | MDA-N > 100 µM | NCI-H23 > 100 µM | NCI-H522 > 100 µM | NCI/ADR-RES > 100 µM | PC-3 > 100 µM | SK-MEL-28 > 100 µM | SN12C > 100 µM | SNB-19 > 100 µM | U-251 > 100 µM

COC(=O)CNC(=O)/C=C/[C@H](O[Si](C)(C)C(C)(C)C)[C@H](/C=C/C(=O)NCC(=O)OC)O[Si](C)(C)C(C)(C)C
inactive: 786-0 > 25 µM | CAKI-1 > 25 µM | COLO 205 > 25 µM | HOP-62 > 25 µM | K562 > 25 µM | MDA-MB-435 > 25 µM | MDA-N > 25 µM | MOLT-4 > 25 µM | Malme-3M > 25 µM | NCI-H23 > 25 µM | NCI-H522 > 25 µM | NCI/ADR-RES > 25 µM | PC-3 > 25 µM | SK-MEL-28 > 25 µM | SK-MEL-2 > 25 µM | SN12C > 25 µM | SNB-19 > 25 µM | U-251 > 25 µM

C=CC(C)(C)C(=C)C(=O)N(C)c1ccccc1I
inactive: 786-0 > 100 µM | CAKI-1 > 100 µM | COLO 205 > 100 µM | HOP-62 > 100 µM | K562 > 100 µM | M14 > 100 µM | MDA-MB-435 > 100 µM | MDA-N > 100 µM | MOLT-4 83.2 µM | NCI-H23 84.1 µM | NCI-H522 > 100 µM | NCI/ADR-RES > 100 µM | PC-3 > 100 µM | SK-MEL-28 > 100 µM | SK-MEL-2 > 100 µM | SN12C > 100 µM | SNB-19 > 100 µM | U-251 > 100 µM

O=c1[nH]c2ccc(C(F)(F)F)cc2nc1C(F)(F)F
inactive: 786-0 35.2 µM | CAKI-1 30.3 µM | COLO 205 17.1 µM | HOP-62 18.3 µM | K562 35.7 µM | M14 31.9 µM | MDA-MB-435 31.2 µM | MDA-N 35.7 µM | MOLT-4 23.4 µM | Malme-3M 21.2 µM | NCI-H23 18.1 µM | NCI-H522 17.5 µM | NCI/ADR-RES 28.1 µM | PC-3 23.3 µM | SK-MEL-28 28.8 µM | SK-MEL-2 15 µM | SN12C 29.4 µM | SNB-19 28 µM | U-251 35 µM

CCC1=C(c2ccc(OC)cc2)CC[C@@]2(CCNC2=O)[C@@H]1C
inactive: 786-0 > 100 µM | CAKI-1 > 100 µM | COLO 205 > 63.4 µM | HOP-62 > 100 µM | K562 26.5 µM | M14 > 100 µM | MDA-MB-435 > 61.4 µM | MDA-N > 93.1 µM | MOLT-4 24.9 µM | Malme-3M 58.7 µM | NCI-H23 > 43.2 µM | NCI-H522 32.4 µM | NCI/ADR-RES > 74.1 µM | PC-3 > 78.2 µM | SK-MEL-28 > 100 µM | SK-MEL-2 > 90.8 µM | SN12C > 100 µM | SNB-19 > 100 µM | U-251 > 100 µM

C=CCOC(=O)C[C@H](NC(=O)[C@H](Cc1ccc(O)cc1)NCC(F)(F)F)C(=O)OCC=C
inactive: 786-0 > 100 µM | CAKI-1 > 100 µM | COLO 205 31.8 µM | HOP-62 > 100 µM | K562 39.2 µM | M14 41.7 µM | MDA-MB-435 41.3 µM | MDA-N 35.3 µM | MOLT-4 25.1 µM | Malme-3M 22.6 µM | NCI-H23 37.5 µM | NCI-H522 25 µM | NCI/ADR-RES > 100 µM | PC-3 77.8 µM | SK-MEL-28 20.6 µM | SK-MEL-2 21.3 µM | SN12C 45 µM | SNB-19 > 100 µM | U-251 > 100 µM

CC1=CC(=O)/C(=C/NC(N)=S)C(=O)O1
inactive: 786-0 > 100 µM | CAKI-1 > 100 µM | COLO 205 > 100 µM | HL-60 1.72 µM | HOP-62 97.5 µM | M14 > 100 µM | MDA-MB-435 > 100 µM | MDA-N > 100 µM | MOLT-4 53.7 µM | NCI-H23 > 100 µM | NCI-H522 > 100 µM | NCI/ADR-RES > 100 µM | PC-3 > 100 µM | SK-MEL-2 50.2 µM | SN12C > 100 µM | SNB-19 97.1 µM | U-251 > 100 µM

CC(C)(C)NC(=O)C12C3C4C1C1C2C3C41C(=O)NC(C)(C)C (stereo not drawn)
inactive: 786-0 > 100 µM | CAKI-1 > 100 µM | COLO 205 > 100 µM | HL-60 > 100 µM | HOP-62 58.9 µM | K562 > 100 µM | M14 > 100 µM | MDA-MB-435 > 100 µM | MDA-N > 100 µM | MOLT-4 78.3 µM | NCI-H23 > 100 µM | NCI-H522 > 100 µM | NCI/ADR-RES > 100 µM | PC-3 > 100 µM | SK-MEL-28 > 100 µM | SK-MEL-2 > 100 µM | SN12C > 100 µM | SNB-19 47.8 µM | U-251 > 100 µM

CC(=O)OC1CC[C@@]2(C)C(C1)CC(OC(C)=O)[C@@H]1C2CC(OC(C)=O)[C@]2(C)C(C(C)CC=C(c3ccc(Cl)cc3)c3ccc(Cl)cc3)CCC12 (stereo partly drawn)
inactive: 786-0 > 100 µM | COLO 205 > 100 µM | HL-60 4.7 µM | HOP-62 94.4 µM | K562 15.2 µM | M14 80.4 µM | MDA-MB-435 > 100 µM | MDA-N > 100 µM | MOLT-4 20 µM | NCI-H522 21.8 µM | NCI/ADR-RES > 100 µM | PC-3 23.6 µM | SK-MEL-28 > 100 µM | SN12C > 100 µM | SNB-19 58.6 µM | U-251 60.5 µM
